Our source for the LD100 and inhibition in vivo values is ChEMBL document CHEMBL3217640, “Labile natural products” (Medchemcomm, 2012).

The inhibition in vivo is the relative decrease from the control value, in per cent.

The subject of data set [1] is Mus musculus. The data set is described as follows: Toxicity in po dosed mouse. The note with it: in vivo. Type of data set: organism-based.
Data set [2] has as its system Rattus norvegicus. Kind of data set: Antiinflammatory activity in Wistar rat assessed as inhibition of heat-killed Mycobacterium butyricum-induced paw swelling at 10 mg/kg, po administered on day 10 to 15 measured everyday of compound dosing by plethysmometer relative to control. It is filed as functional. The note with it: 240 h.

Compound `O=C(O)C1C=C1` had an LD100 in data set [1] of 2.5 mg/kg. `CCCCCc1oc(CCCCCCCCCCC(=O)OCC)c(C)c1C`: the inhibition in vivo at 10 mg/kg in data set [2] is 74%.
